{"source": "patent US11149008B2", "about": "“Sulfamide derivatives and preparation method and use thereof” (HitGen Ltd., priority 2015, dated 2021)", "key": {"HDAC 6": {"target": "T1, HDAC 6 (Homo sapiens, UniProt Q9UBN7)", "T1 construct": "purchased BPS Bioscience #50076", "T1 sequence (Q9UBN7 1-1215)": "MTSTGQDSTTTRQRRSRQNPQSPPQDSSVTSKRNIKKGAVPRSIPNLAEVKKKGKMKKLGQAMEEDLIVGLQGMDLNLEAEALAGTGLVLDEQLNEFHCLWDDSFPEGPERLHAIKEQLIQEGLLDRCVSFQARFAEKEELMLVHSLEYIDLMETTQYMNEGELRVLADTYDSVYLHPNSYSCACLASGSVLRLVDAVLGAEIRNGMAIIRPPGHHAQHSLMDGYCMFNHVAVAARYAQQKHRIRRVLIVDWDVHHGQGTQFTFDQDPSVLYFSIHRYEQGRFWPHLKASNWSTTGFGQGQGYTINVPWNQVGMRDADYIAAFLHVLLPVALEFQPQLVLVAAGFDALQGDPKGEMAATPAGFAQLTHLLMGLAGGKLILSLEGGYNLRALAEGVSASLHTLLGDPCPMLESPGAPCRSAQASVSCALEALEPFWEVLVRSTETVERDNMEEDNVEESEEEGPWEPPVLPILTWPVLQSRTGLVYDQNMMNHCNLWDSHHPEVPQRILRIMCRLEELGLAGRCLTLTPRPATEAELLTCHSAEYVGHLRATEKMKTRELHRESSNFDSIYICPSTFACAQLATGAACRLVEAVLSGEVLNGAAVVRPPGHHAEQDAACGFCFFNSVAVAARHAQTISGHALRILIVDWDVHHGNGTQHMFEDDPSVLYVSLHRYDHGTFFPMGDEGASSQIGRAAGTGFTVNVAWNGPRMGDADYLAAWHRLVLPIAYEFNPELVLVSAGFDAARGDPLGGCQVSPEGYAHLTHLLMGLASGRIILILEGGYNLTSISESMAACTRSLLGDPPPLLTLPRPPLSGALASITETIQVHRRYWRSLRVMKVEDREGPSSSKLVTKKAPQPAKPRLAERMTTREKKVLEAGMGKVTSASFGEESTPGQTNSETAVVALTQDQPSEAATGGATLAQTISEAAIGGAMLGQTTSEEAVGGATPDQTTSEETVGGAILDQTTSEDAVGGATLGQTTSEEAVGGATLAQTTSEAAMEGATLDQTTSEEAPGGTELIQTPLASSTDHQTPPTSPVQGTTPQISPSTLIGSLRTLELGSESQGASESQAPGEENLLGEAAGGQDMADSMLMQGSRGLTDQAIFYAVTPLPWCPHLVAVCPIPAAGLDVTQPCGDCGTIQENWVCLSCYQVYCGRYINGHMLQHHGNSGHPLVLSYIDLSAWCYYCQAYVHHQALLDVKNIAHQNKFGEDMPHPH", "assay": "Enzyme activity detection of histone deacetylase 6 (fluorogenic substrate deacetylation)", "assay_type": "biochemical", "conditions": "0.35 ng/μL HDAC 6, 20 μM substrate, 30 min at 37° C.; IC50 class", "text": "During the deacetylation detection of a substrate, the HDAC inhibition activity of the compound of the present invention was detected.\nA: Enzyme Activity Detection of Histone Deacetylase 6 (#50076, BPS Bioscience)\nAcetyl on the substrate was removed by the HDAC 6, so that the substrate was activated, and the developing liquid added subsequently could act on the substrate to release the fluorescent group. The size of the fluorescence signal reflected the activity of the HDAC 6. The IC50 detection method for this enzyme was disclosed in Chuping Xu, Elisabetta Soragni Improved Histone Deacetylase Inhibitors as Therapeutics for the Neurdegenerative Disease Friedreich's Ataxia: A New Synthetic Route. The total reaction system (100 μL/well) contained 0.35 ng/μL of HDAC 6, 20 μM of the substrate and the compound in different concentrations. The reaction system was incubated for 30 min at 37° C., and the fluorescence signal was then measured. The inhibition effect of the compound was determined from the obtained data, a concentration response curve was obtained by using the inhibition effect and the concentration of the compound, and the value of IC50 was fitted according to a four-parameter model.\nThe activities of the compounds prepared in the embodiments against the histone deacetylases 1, 3 and 6 (i.e., HDAC 1, HDAC 3 and HDAC 6) were detected by the above methods, and the test results were shown in Table 2, where the measurements of IC50 of the compounds were classified according to the following description: […]"}, "HCT-116 cells": {"test_system": "HCT-116 cells", "assay": "Cell growth inhibition measurement (CCK-8), HCT-116", "assay_type": "cell-based", "conditions": "Homo sapiens, HCT-116, 72 h, highest EC50 measured during one or multiple operations, read-out: Inhibition activity against cancer cells, HCT-116 (EC50)", "text": "A HepG2 cell strain and an HCT-116 cell strain were purchased from Shanghai Institutes for Biological Sciences; a DMEM high-sugar culture medium and an MEM culture medium were purchased from Hyclone; fetal calf serum was purchased from Gibco; trypsin was purchased from Invitrogen Shanghai; a CCK-8 kit was purchased from Beyotime Institute of Biotechnology; and, the remaining cell culture mediums and other consumables were purchased from Corning China.\nHepG2 cells and HCT-116 cells in the logarithmic growth phase were digested by trypsin. After the counting of uniform cell suspension, the cell density was adjusted as 1500 cells/well by a culture medium containing 10% serum. The cells were re-inoculated to a 96-well cell culture plate, and cultured to a volume of 200 μL at 37° C. in an incubator containing 5% CO2. The cells could be tested after being cultured for 24 h.\nThe cells cultured for 24 h were taken out from the incubator. The culture liquid in the well plate was sucked out, and 200 μL of compound solution prepared in the culture medium containing 10% fetal calf serum was added in each well. Five parallel mediums were provided for each concentration, and a DMSO culture medium was used as negative control. The culture mediums were cultured for 72 h at 37° C. in an incubator containing 5% CO2, and CCK-8 detection was performed.\nA serum-free culture medium and CCK-8 solution were prepared, and CCK-8 working solution was prepared at a ratio of 10:1 (this process should be performed in dark place).\nThe cells cultured for 72 h were taken out from the incubator. The culture liquid in the well plate was sucked out, and 120 μL of the CCK-8 working solution was added in each well. A well plate without cells was also added with 120 μL of the CCK-8 working solution to serve as blank control. The well plates were cultured for 1 h at 37° C. in an incubator containing 5% CO2 (this process should be performed in dark place).\nThe well plates were taken out from the incubator, 100 μL of solution in each well was sucked out and added in a new 96-well plate, and the absorbance was measured at 450 nm (this process should be performed in dark place).\nwhere Tx is the absorbance of the CCK-8 after the compound acts for 72 h;\nC is the absorbance of the CCK-8 after the negative control wells are cultured for 72 h; and\nB is the absorbance of the CCK-8 in the blank control wells.\nThe test results of the compounds prepared according to the embodiments during the measurement are shown in Table 3, wherein the measured highest EC50 of the compounds during one operation or multiple operations is classified according to the following description: […]"}}, "note": "pEC50, pIC50: −log10 of the molar value.", "data": [{"molecule": "CN1CCN(c2ccc(-c3ccc(S(=O)(=O)N4CC=C(C(=O)NO)CC4)cc3)cc2)CC1", "note": "[Compound 29, N-hydroxyl-1-((4′-(4-methylpiperazinyl)-[1,1′-biphenyl]-4-yl)sulfonyl)-1,2,3,6-tetrahydropyridine-4-formamide]", "values": [{"measurement": "pIC50", "setting": "HDAC 6", "result": "> 7.00"}, {"measurement": "pEC50", "setting": "HCT-116 cells", "result": "> 7.00"}]}]}
